The text below walks through data of US20240269139A1, “COMPOUNDS FOR TARGETED PROTEIN DEGRADATION OF KINASES” (DANA-FARBER CANCER INSTITUTE, INC., priority 2020, published 2024).

The structures appear in SMILES notation. Like-named read-outs stand apart in the source and are kept apart here.

Holding throughout (type): cell-based
The target of experiment [1] is protein kinases (human kinome) (Homo sapiens, UniProt P11802).
Experiment [2] deals with T1, protein kinases (human kinome) (Homo sapiens, UniProt O14965).
T1 sequence (O14965 1-403): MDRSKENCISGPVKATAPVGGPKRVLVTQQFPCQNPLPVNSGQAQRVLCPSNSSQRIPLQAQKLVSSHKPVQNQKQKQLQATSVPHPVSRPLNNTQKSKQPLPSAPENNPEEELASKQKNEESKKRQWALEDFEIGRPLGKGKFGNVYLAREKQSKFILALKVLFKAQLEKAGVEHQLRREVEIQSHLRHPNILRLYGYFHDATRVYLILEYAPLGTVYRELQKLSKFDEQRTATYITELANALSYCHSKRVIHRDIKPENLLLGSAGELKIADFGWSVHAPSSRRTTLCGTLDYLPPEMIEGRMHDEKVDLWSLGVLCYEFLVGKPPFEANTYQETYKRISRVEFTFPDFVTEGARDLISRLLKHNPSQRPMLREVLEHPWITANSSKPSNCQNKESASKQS

Experiment [3] addresses protein kinases (human kinome) (Homo sapiens, UniProt P16591). Conditions: for logFC of FER (P16591-1): Experiment wp146, down; for logFC of FER: FER P16591-1, experiment wp146.
In experiment [4] the target is protein kinases (human kinome) (Homo sapiens, UniProt Q2M2I8).
protein kinases (human kinome) (Homo sapiens, UniProt Q2M2I8), sequence (Q2M2I8 whole entry): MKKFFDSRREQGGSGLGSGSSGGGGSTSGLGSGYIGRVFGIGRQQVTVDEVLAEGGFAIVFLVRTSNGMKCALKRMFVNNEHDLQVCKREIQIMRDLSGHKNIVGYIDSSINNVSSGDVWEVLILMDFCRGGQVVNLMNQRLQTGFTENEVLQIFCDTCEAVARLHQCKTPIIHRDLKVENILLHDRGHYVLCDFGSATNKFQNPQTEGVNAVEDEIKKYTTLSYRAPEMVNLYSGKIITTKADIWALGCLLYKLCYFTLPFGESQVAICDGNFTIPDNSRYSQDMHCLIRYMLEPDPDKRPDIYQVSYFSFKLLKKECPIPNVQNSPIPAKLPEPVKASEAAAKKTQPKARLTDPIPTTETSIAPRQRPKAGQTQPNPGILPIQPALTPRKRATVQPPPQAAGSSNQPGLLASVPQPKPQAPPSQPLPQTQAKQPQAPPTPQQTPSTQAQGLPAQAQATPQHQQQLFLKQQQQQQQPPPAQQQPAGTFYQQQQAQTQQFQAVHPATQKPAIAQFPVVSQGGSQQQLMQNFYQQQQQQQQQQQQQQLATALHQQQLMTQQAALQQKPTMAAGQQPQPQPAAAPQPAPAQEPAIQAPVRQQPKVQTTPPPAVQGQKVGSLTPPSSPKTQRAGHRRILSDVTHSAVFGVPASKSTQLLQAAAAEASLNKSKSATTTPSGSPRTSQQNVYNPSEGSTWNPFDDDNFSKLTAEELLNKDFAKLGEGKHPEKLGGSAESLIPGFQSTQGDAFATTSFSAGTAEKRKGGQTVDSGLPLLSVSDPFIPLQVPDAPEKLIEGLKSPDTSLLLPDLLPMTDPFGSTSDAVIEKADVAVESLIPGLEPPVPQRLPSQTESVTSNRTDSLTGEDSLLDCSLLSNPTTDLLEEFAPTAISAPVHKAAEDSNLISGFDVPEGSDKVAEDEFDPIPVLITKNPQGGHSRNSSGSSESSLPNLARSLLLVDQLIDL
For experiment [5], the target named is protein kinases (human kinome) (Homo sapiens, UniProt P51451). Conditions: for logFC of BLK (P51451): down; for logFC BLK: BLK (P51451), direction down.
protein kinases (human kinome) (Homo sapiens, UniProt P51451), sequence (P51451 whole entry): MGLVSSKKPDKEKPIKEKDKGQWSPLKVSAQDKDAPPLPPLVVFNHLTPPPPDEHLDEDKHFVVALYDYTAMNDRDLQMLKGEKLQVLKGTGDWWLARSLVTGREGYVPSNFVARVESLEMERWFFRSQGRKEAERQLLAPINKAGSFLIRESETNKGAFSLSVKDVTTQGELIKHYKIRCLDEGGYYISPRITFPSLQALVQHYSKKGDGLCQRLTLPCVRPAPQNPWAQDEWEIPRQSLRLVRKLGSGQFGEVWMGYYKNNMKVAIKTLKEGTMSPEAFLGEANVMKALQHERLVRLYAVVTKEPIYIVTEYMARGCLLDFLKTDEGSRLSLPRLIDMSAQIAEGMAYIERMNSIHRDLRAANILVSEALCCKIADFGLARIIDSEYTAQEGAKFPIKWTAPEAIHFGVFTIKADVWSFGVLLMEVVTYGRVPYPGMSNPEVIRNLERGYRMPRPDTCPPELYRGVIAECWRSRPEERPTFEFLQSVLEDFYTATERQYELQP
Experiment [6] deals with T2, protein kinases (human kinome) (Homo sapiens, UniProt O14976).
T2 sequence (O14976 1-1311): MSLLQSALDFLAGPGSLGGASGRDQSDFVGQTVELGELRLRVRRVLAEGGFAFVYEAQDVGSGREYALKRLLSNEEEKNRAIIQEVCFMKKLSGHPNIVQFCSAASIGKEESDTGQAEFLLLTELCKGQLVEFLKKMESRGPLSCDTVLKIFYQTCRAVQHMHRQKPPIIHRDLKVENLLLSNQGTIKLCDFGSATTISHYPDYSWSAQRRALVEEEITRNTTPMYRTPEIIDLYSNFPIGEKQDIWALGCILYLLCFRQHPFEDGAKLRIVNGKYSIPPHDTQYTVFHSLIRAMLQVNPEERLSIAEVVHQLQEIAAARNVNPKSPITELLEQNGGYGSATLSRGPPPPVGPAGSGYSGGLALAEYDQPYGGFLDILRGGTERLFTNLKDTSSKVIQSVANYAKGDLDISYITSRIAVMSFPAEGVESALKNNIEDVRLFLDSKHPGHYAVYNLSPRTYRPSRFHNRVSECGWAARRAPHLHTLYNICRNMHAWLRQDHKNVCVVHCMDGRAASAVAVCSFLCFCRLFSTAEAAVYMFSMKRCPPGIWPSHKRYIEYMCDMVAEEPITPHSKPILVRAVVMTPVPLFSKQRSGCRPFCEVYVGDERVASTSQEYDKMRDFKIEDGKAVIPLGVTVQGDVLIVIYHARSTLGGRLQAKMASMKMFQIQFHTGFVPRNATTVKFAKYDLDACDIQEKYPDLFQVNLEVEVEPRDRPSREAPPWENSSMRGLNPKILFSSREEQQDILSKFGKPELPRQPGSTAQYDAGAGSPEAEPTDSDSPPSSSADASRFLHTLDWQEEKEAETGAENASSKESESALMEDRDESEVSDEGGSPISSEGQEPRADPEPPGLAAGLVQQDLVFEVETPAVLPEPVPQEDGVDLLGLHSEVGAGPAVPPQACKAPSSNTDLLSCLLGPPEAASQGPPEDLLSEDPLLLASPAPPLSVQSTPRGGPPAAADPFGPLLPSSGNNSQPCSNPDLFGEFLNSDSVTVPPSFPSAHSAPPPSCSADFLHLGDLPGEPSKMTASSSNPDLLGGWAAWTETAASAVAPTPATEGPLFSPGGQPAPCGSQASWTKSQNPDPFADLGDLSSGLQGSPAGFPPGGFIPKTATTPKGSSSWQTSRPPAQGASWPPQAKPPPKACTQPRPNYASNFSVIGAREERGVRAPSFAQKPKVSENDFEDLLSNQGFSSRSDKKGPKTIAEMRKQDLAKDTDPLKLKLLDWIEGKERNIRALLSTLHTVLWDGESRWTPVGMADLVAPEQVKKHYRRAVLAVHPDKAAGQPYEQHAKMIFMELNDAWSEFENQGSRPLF
Conditions: for logFC of GAK (O14976): down; for logFC GAK: GAK (O14976), direction down.

Experiment [7] has as its target protein kinases (human kinome) (Homo sapiens, UniProt Q00534). Conditions: for logFC CDK6: CDK6 (Q00534), direction down; for logFC of CDK6 (Q00534): down.
[8] abbreviates: AAK1 (Q2M218-1), experiment wp146, down.
Setting [9] is: AAK1, accession Q2M218-1, experiment wp146, direction of change down.

protein kinases (human kinome) (Homo sapiens, UniProt P16591), sequence (P16591 whole entry): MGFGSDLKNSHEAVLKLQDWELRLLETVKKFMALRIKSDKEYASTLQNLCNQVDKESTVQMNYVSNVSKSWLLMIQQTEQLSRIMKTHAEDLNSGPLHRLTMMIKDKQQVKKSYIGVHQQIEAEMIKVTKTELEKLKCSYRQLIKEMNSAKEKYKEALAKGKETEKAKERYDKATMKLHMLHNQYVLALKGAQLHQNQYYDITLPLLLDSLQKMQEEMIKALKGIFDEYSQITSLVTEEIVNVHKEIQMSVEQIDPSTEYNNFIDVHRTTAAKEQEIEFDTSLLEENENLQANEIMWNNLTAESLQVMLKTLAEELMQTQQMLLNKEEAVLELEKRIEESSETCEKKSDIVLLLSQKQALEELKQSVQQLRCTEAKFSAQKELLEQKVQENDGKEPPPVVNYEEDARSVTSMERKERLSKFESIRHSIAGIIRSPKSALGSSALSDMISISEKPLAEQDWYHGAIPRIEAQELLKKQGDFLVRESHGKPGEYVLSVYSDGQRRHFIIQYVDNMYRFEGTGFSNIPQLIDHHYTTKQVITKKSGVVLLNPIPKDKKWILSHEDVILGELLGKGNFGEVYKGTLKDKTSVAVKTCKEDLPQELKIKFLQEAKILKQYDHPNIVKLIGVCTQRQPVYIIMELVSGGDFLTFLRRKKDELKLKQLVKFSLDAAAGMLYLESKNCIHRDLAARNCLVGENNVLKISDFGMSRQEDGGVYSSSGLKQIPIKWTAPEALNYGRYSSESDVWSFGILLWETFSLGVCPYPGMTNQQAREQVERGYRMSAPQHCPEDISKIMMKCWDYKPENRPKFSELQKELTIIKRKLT
protein kinases (human kinome) (Homo sapiens, UniProt P11802), sequence (P11802 whole entry): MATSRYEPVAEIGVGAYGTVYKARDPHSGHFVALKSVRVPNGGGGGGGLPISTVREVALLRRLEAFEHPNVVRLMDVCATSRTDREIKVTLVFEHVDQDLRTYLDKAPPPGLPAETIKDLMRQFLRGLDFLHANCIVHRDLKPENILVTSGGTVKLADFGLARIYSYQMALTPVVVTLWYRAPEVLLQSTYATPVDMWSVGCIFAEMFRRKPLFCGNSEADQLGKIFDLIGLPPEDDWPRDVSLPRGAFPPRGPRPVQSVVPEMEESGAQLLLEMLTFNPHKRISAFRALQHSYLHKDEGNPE
protein kinases (human kinome) (Homo sapiens, UniProt Q00534), sequence (Q00534 whole entry): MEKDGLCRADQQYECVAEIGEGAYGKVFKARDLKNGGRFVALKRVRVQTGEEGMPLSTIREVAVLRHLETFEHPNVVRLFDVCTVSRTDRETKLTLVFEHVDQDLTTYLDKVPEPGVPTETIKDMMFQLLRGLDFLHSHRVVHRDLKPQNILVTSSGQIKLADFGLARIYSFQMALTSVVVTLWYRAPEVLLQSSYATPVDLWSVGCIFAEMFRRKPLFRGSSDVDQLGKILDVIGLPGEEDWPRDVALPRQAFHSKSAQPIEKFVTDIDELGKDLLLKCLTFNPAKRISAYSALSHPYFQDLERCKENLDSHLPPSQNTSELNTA

Regarding `O=C1CCC(N2C(=O)c3cccc(NCCCCCCCCN4CCC(NC(=O)c5[nH]ncc5NC(=O)c5c(Cl)cccc5Cl)CC4)c3C2=O)C(=O)N1` (stereo not shown) [MFH.5.126.1], the “logFC CDK4 (P11802)” value in experiment [1] (experiment wp076) is −0.608. In addition, in experiment [2] (experiment wp076), the “logFC AURKA (O14965)” value was −0.9474.
In the case of `Cc1cc(Nc2ncc(Br)c(Nc3cccc(F)c3C(N)=O)n2)ccc1S(=O)(=O)NCCOCCOCCOCCOCCNc1cccc2c1C(=O)N(C1CCC(=O)NC1=O)C2=O` (stereo not shown) [TMX.02.174], the “logFC of FER (P16591-1)” value in experiment [3] is given as −1.089. The “logFC of FER” value in experiment [3] is reported as −1.089. The “logFC AURKA (O14965)” value in experiment [2] (experiment wp146) was −2.865. The “logFC AAK1” value in experiment [4] (setting [8]) and in experiment [4] (setting [9]) was −1.62 in each case.
As to `CCc1cnn2c(N(Cc3ccc(N)nc3)C(=O)CCOCCOCCOCCNC(=O)CNc3cccc4c3C(=O)N(C3CCC(=O)NC3=O)C4=O)cc(N3CCCC[C@H]3CCO)nc12` (stereo partly shown) [MFH.5.115.2], the “logFC CDK4 (P11802)” value in experiment [1] (experiment wp076) is −0.7246. Further, in experiment [2] (experiment wp076), the “logFC AURKA (O14965)” value was −0.5912.
Regarding `NC(=O)c1c(F)cccc1Nc1nc(Nc2ccc(S(=O)(=O)NCCOCCOCCOCCOCCNc3cccc4c3C(=O)N(C3CCC(=O)NC3=O)C4=O)cc2)ncc1Br` (stereo not shown) [TMX.02.138], in experiment [3], the “logFC of FER (P16591-1)” value was −0.8083 and the “logFC of FER” value is −0.8083. In addition, in experiment [2] (experiment wp146), the “logFC AURKA (O14965)” value is recorded as −2.933. The “logFC AAK1” value in experiment [4] (setting [8]) is listed as −1.129. Also, in experiment [4] (setting [9]), the “logFC AAK1” value was −1.129.
As to `Nc1ncnc2c1c(-c1ccc(Oc3ccccc3)cc1)nn2[C@H]1CC[C@H](N2CCN(CCOCCNC(=O)CNc3cccc4c3C(=O)N(C3CCC(=O)NC3=O)C4=O)CC2)CC1` (stereo partly shown) [SB1.G.181], the “logFC of BLK” value in experiment [5] (BLK P51451, experiment wp071) was −2.337. Besides, the “logFC of BLK (P51451)” value in experiment [5] (Experiment wp071) is reported as −2.337. In addition, in experiment [2] (experiment wp071), the “logFC AURKA (O14965)” value is given as −0.3684.
As for `Cc1cnc(Nc2ccc(N3CCN(CCOCCOCCNC(=O)COc4cccc5c4C(=O)N(C4CCC(=O)NC4=O)C5=O)CC3)cc2)nc1Nc1cccc(S(=O)(=O)NC(C)(C)C)c1` (stereo not shown) [JWG.118], the “logFC of GAK (O14976)” value in experiment [6] (Experiment wp071) is −1.972. The “logFC GAK” value in experiment [6] (experiment wp071) is given as −1.972. Also, the “logFC AURKA (O14965)” value in experiment [2] (experiment wp071) is on record as −0.8861. Besides, the “logFC AAK1” value in experiment [4] (AAK1 (Q2M218-1), experiment wp071, down) was −3.044; in experiment [4] (AAK1, accession Q2M218-1, experiment wp071, direction of change down), −3.044.
As for `O=C(COc1cccc2c1C(=O)N(C1CCC(=O)NC1=O)C2=O)NCCCCCCCN1CCc2cc(Nc3ncc(C4CC4)c(NCCCNC(=O)C4CCC4)n3)ccc2C1` (stereo not shown) [BSJ.04.178], the “logFC of GAK (O14976)” value in experiment [6] (Experiment wp134) is −2.402. The “logFC GAK” value in experiment [6] (experiment wp134) is −2.402. Also, in experiment [2] (experiment wp134), the “logFC AURKA (O14965)” value is −0.4772. Moreover, the “logFC AAK1” value was −3.342 in experiment [4] (AAK1 (Q2M218-1), experiment wp134, down) and −3.342 in experiment [4] (AAK1, accession Q2M218-1, experiment wp134, direction of change down).
On to `CNC(=O)c1ccccc1Nc1cc(Nc2ccc(N3CCN(CCOCCOCCNC(=O)CNc4cccc5c4C(=O)N(C4CCC(=O)NC4=O)C5=O)CC3)cc2OC)ncc1C(F)(F)F` (stereo not shown) [MFH.5.103.1], for which the “logFC AURKA (O14965)” value in experiment [2] (experiment wp076) and in experiment [2] (experiment wp078) was −0.9893 each time.
For `Cc1ncsc1-c1ccc([C@H](C)NC(=O)[C@@H]2C[C@@H](O)CN2C(=O)[C@@H](NC(=O)CCCCCN2CCN(c3ccc(Nc4ncc5scc(-c6cccc(NS(C)(=O)=O)c6)c5n4)cc3)CC2)C(C)(C)C)cc1` [RSS0680, (2S,4R)-1-((S)-3,3-Dimethyl-2-(6-(4-(4-((7-(3-(methylsulfonamido)phenyl)thieno[3,2-d]pyrimidin-2-yl)amino)phenyl)piperazin-1-yl)hexanamido)butanoyl)-4-hydroxy-N—((S)-1-(4-(4-methylthiazol-5yl)phenyl)ethyl)pyrrolidine-2-carboxamide], the “logFC of GAK (O14976)” value in experiment [6] (Experiment wp080) is reported as −0.7773; in experiment [6] (Experiment wp117), −0.6853. Further, the entries for the “logFC GAK” value in experiment [6] (experiment wp080) and in experiment [6] (experiment wp117) were −0.7773 and −0.6853, respectively. The entries for the “logFC CDK4 (P11802)” value in experiment [1] (experiment wp080) and in experiment [1] (experiment wp117) were −1.724 and −1.679, respectively. The “logFC AAK1” value in experiment [4] (AAK1 (Q2M218-1), experiment wp080, down) is −1.392; in experiment [4] (AAK1 (Q2M218-1), experiment wp117, down) it was −1.05; in experiment [4] (AAK1, accession Q2M218-1, experiment wp080, direction of change down), −1.392; in experiment [4] (AAK1, accession Q2M218-1, experiment wp117, direction of change down), −1.05. Moreover, the “logFC CDK6” value is on record as −2.17 in experiment [7] (experiment wp080) and −2.169 in experiment [7] (experiment wp117). Further, the figures for the “logFC of CDK6 (Q00534)” value in experiment [7] (Experiment wp080) and in experiment [7] (Experiment wp117) were −2.17 and −2.169, respectively.
In the case of `Cn1c(=O)c(-c2c(Cl)cccc2Cl)cc2cnc(Nc3ccc(OCCNC(=O)CCCCCCNC(=O)COc4cccc5c4C(=O)N(C4CCC(=O)NC4=O)C5=O)cc3)nc21` (stereo not shown) [SB1.G.192.1], the entries for the “logFC BLK” value in experiment [5] (experiment wp071), in experiment [5] (experiment wp081) and in experiment [5] (experiment wp131) were −2.399, −2.013 and −2.465, respectively. Besides, the “logFC of BLK (P51451)” value in experiment [5] (Experiment wp071) is −2.399; in experiment [5] (Experiment wp081), −2.013; in experiment [5] (Experiment wp131), −2.465. The “logFC of GAK (O14976)” value in experiment [6] (Experiment wp071) is reported as −1.765; in experiment [6] (Experiment wp081), −1.409; in experiment [6] (Experiment wp131) it was −1.475. For the same compound, the “logFC GAK” value in experiment [6] (experiment wp071) is −1.765; in experiment [6] (experiment wp081) it was −1.409; in experiment [6] (experiment wp131), −1.475. The figures for the “logFC AURKA (O14965)” value in experiment [2] (experiment wp071), in experiment [2] (experiment wp081) and in experiment [2] (experiment wp131) were −0.8111, −0.7299 and −0.6267, respectively.
